{"source": "patent US20260241012A1", "about": "“1,8-NAPHTHYRIDIN-2-ONE HETEROBIFUNCTIONAL BCL6 DEGRADERS” (Treeline Biosciences, Inc., priority 2022, published 2026)", "molecular_target": "T1, N-terminal HiBiT tagged BCL6 (Homo sapiens, UniProt P41182)", "T1 construct": "expressed in transfected cells; host or cells: HT1080 (ATCC CCL-121), stably transduced with lentivirus pLV-UBC-N-HiBiT-BCL6-PGK-puro", "experiment": "HiBiT based degradation assay", "assay_type": "cell-based", "details": "HT1080 cells expressing N-terminal HiBiT tagged BCL6, 5 hours of incubation; for Ymin (5 hr): BCL6 degradation normalized with DMSO control; for DC50: four-parameter logistic model, read-out: EC50 (5 hr)", "outline": "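Degradation measured by luminescence from the Nano-Glo HiBiT lytic reagent (15 min, room temperature), normalized to DMSO controls and fitted to a four-parameter curve.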", "data": [{"compound": "CNC(=O)COc1cc2cc(Nc3nc(N4CC5(CC[C@H](Nc6ccc7c(C8CCC(=O)NC8=O)nn(C)c7c6)[C@@H](C(F)(F)F)C5)C4)ncc3Cl)cnc2n(C(C)C)c1=O", "note": "(relative stereo) [Compound 221b, rel-2-((6-((5-chloro-2-((6S,7S)-7-((3-(2,6-dioxopiperidin-3-yl)-1-methyl-1H-indazol-6-yl)amino)-6-(trifluoromethyl)-2-azaspiro[3.5]nonan-2-yl)pyrimidin-4-yl)amino)-1-isopropyl-2-oxo-1,2-dihydro-1,8-naphthyridin-3-yl)oxy)-N-methylacetamide]", "values": [{"measurement": "Ymin (5 hr)", "value": "++++ (Ymin < 30%)"}, {"measurement": "DC50", "value": "< 10", "unit": "nM"}]}, {"compound": "CNC(=O)COc1cc2cc(Nc3nc(N4C[C@@H]5C[C@H]4CN5CC4CCN(c5cccc6c(C7CCC(=O)NC7=O)nn(C)c56)CC4)ncc3Cl)cnc2n(C(C)C)c1=O", "note": "(stereo partly drawn) [Compound 174b, 2-[[6-[[5-chloro-2-[(1S,4S)-5-[[1-[3-(2,6-dioxo-3-piperidyl)-1-methyl-indazol-7-yl]-4-piperidyl]methyl]-2,5-diazabicyclo[2.2.1]heptan-2-yl]pyrimidin-4-yl]amino]-1-isopropyl-2-oxo-1,8-naphthyridin-3-yl]oxy]-N-methyl-acetamide]", "values": [{"measurement": "Ymin (5 hr)", "value": "+++ (30% ≤ Ymin < 50%)"}, {"measurement": "DC50", "value": "10 to 100", "unit": "nM"}]}, {"compound": "CNC(=O)COc1cc2cc(Nc3nc(N4CC[C@H](CN5CCN(c6ccc7c(C8CCC(=O)NC8=O)nn(C)c7c6)CC5)[C@@H](C)C4)ncc3Cl)cnc2n(C(C)C)c1=O", "note": "(stereo partly drawn) [Compound 176b, 2-((6-((5-chloro-2-((3R,4S)-4-((4-(3-(2,6-dioxopiperidin-3-yl)-1-methyl-1H-indazol-6-yl)piperazin-1-yl)methyl)-3-methylpiperidin-1-yl)pyrimidin-4-yl)amino)-1-isopropyl-2-oxo-1,2-dihydro-1,8-naphthyridin-3-yl)oxy)-N-methylacetamide]", "values": [{"measurement": "Ymin (5 hr)", "value": "+++ (30% ≤ Ymin < 50%)"}, {"measurement": "DC50", "value": "< 10", "unit": "nM"}]}, {"compound": "CNC(=O)COc1cc2cc(Nc3nc(N4CC[C@H](CNc5ccc6c(C7CCC(=O)NC7=O)nn(C)c6c5)C4)ncc3Cl)cnc2n(C)c1=O", "note": "(stereo partly drawn) [Compound 123a, 2-((6-((5-chloro-2-((3R)-3-(((3-(2,6-dioxopiperidin-3-yl)-1-methyl-1H-indazol-6-yl)amino)methyl)pyrrolidin-1-yl)pyrimidin-4-yl)amino)-1-methyl-2-oxo-1,2-dihydro-1,8-naphthyridin-3-yl)oxy)-N-methylacetamide]", "values": [{"measurement": "Ymin (5 hr)", "value": "++ (50% ≤ Ymin < 70%)"}, {"measurement": "DC50", "value": "< 10", "unit": "nM"}]}, {"compound": "CNC(=O)COc1cc2cc(Nc3nc(N4CC[C@H](CNc5cccc6c(C7CCC(=O)NC7=O)nn(C)c56)C4)ncc3Cl)cnc2n(C)c1=O", "note": "(stereo partly drawn) [Compound 122a, 2-((6-((5-chloro-2-((3R)-3-(((3-(2,6-dioxopiperidin-3-yl)-1-methyl-1H-indazol-7-yl)amino)methyl)pyrrolidin-1-yl)pyrimidin-4-yl)amino)-1-methyl-2-oxo-1,2-dihydro-1,8-naphthyridin-3-yl)oxy)-N-methylacetamide]", "values": [{"measurement": "Ymin (5 hr)", "value": "++ (50% ≤ Ymin < 70%)"}, {"measurement": "DC50", "value": "10 to 100", "unit": "nM"}]}, {"compound": "CNC(=O)COc1cc2cc(Nc3nc(N4CCC([C@@H](C)N5CCN(c6cccc7c(C8CCC(=O)NC8=O)nn(C)c67)CC5)CC4)ncc3Cl)cnc2n(C(C)C)c1=O", "note": "(single isomer, unassigned) [Compound 193a]", "values": [{"measurement": "Ymin (5 hr)", "value": "+++ (30% ≤ Ymin < 50%)"}, {"measurement": "DC50", "value": "10 to 100", "unit": "nM"}]}, {"compound": "CNC(=O)COc1cc2cc(Nc3nc(N4CCC(CN5CCN(c6cccc7c(C8CCC(=O)NC8=O)nn(C)c67)[C@@H](C)C5)CC4)ncc3Cl)cnc2n(C(C)C)c1=O", "note": "(stereo partly drawn) [Compound 169a, 2-((6-((5-chloro-2-(4-(((3S)-4-(3-(2,6-dioxopiperidin-3-yl)-1-methyl-1H-indazol-7-yl)-3-methylpiperazin-1-yl)methyl)piperidin-1-yl)pyrimidin-4-yl)amino)-1-isopropyl-2-oxo-1,2-dihydro-1,8-naphthyridin-3-yl)oxy)-N-methylacetamide]", "values": [{"measurement": "Ymin (5 hr)", "value": "++++ (Ymin < 30%)"}, {"measurement": "DC50", "value": "< 10", "unit": "nM"}]}, {"compound": "CNC(=O)COc1cc2cc(Nc3nc(N4CCN(CC5CCN(c6ccc7c(C8CCC(=O)NC8=O)nn(C)c7c6)CC5)CC4)ncc3F)cnc2n(C)c1=O", "note": "(stereo not shown) [Compound 134, 2-((6-((2-(4-((1-(3-(2,6-dioxopiperidin-3-yl)-1-methyl-1H-indazol-6-yl)piperidin-4-yl)methyl)piperazin-1-yl)-5-fluoropyrimidin-4-yl)amino)-1-methyl-2-oxo-1,2-dihydro-1,8-naphthyridin-3-yl)oxy)-N-methylacetamide]", "values": [{"measurement": "Ymin (5 hr)", "value": "+++ (30% ≤ Ymin < 50%)"}, {"measurement": "DC50", "value": "< 10", "unit": "nM"}]}, {"compound": "CNC(=O)COc1cc2cc(Nc3nc(N4CCC5(CCC(Nc6ccc7c(C8CCC(=O)NC8=O)nn(C)c7c6)CC5)CC4)ncc3Cl)cnc2n(C(C)C)c1=O", "note": "(stereo not shown) [Compound 199, 2-[[6-[[5-chloro-2-[9-[[3-(2,6-dioxo-3-piperidyl)-1-methyl-indazol-6-yl]amino]-3-azaspiro[5.5]undecan-3-yl]pyrimidin-4-yl]amino]-1-isopropyl-2-oxo-1,8-naphthyridin-3-yl]oxy]-N-methyl-acetamide]", "values": [{"measurement": "Ymin (5 hr)", "value": "++++ (Ymin < 30%)"}, {"measurement": "DC50", "value": "< 10", "unit": "nM"}]}, {"compound": "CNC(=O)COc1cc2cc(Nc3nc(N4CCC([C@](C)(O)C5CCN(c6cccc7c(C8CCC(=O)NC8=O)nn(C)c67)CC5)CC4)ncc3Cl)cnc2n(C(C)C)c1=O", "note": "(stereo in doubt) [Compound 194b, rel-2-((6-((5-chloro-2-(4-((1R)-1-(1-(3-(2,6-dioxopiperidin-3-yl)-1-methyl-1H-indazol-7-yl)piperidin-4-yl)-1-hydroxyethyl)piperidin-1-yl)pyrimidin-4-yl)amino)-1-isopropyl-2-oxo-1,2-dihydro-1,8-naphthyridin-3-yl)oxy)-N-methylacetamide]", "values": [{"measurement": "Ymin (5 hr)", "value": "+++ (30% ≤ Ymin < 50%)"}, {"measurement": "DC50", "value": "10 to 100", "unit": "nM"}]}, {"compound": "CNC(=O)COc1cc2cc(Nc3nc(N4CCN(CCC5CCN(c6ccc7c(C8CCC(=O)NC8=O)nn(C)c7c6)CC5)CC4)ncc3Cl)cnc2n(C)c1=O", "note": "(stereo not shown) [Compound 114, 2-((6-((5-chloro-2-(4-(2-(1-(3-(2,6-dioxopiperidin-3-yl)-1-methyl-1H-indazol-6-yl)piperidin-4-yl)ethyl)piperazin-1-yl)pyrimidin-4-yl)amino)-1-methyl-2-oxo-1,2-dihydro-1,8-naphthyridin-3-yl)oxy)-N-methylacetamide]", "values": [{"measurement": "Ymin (5 hr)", "value": "+++ (30% ≤ Ymin < 50%)"}, {"measurement": "DC50", "value": "< 10", "unit": "nM"}]}, {"compound": "CNC(=O)COc1cc2cc(Nc3nc(N4C5COCC4CN(CC4CCN(c6cccc7c(C8CCC(=O)NC8=O)nn(C)c67)CC4)C5)ncc3Cl)cnc2n(C(C)C)c1=O", "note": "(stereo not shown) [Compound 162, 2-((6-((5-chloro-2-(7-((1-(3-(2,6-dioxopiperidin-3-yl)-1-methyl-1H-indazol-7-yl)piperidin-4-yl)methyl)-3-oxa-7,9-diazabicyclo[3.3.1]nonan-9-yl)pyrimidin-4-yl)amino)-1-isopropyl-2-oxo-1,2-dihydro-1,8-naphthyridin-3-yl)oxy)-N-methylacetamide]", "values": [{"measurement": "Ymin (5 hr)", "value": "++++ (Ymin < 30%)"}, {"measurement": "DC50", "value": "< 10", "unit": "nM"}]}, {"compound": "CNC(=O)COc1cc2cc(Nc3nc(N4CCC(CN5CCN(c6cccc7c(C8CCC(=O)NC8=O)nn(C)c67)[C@@H](C)C5)CC4)ncc3F)cnc2n(C(C)C)c1=O", "note": "(stereo partly drawn) [Compound 210a, 2-[[6-[[2-[4-[[(3S)-4-[3-(2,6-dioxo-3-piperidyl)-1-methyl-indazol-7-yl]-3-methyl-piperazin-1-yl]methyl]-1-piperidyl]-5-fluoro-pyrimidin-4-yl]amino]-1-isopropyl-2-oxo-1,8-naphthyridin-3-yl]oxy]-N-methyl-acetamide]", "values": [{"measurement": "Ymin (5 hr)", "value": "++++ (Ymin < 30%)"}, {"measurement": "DC50", "value": "10 to 100", "unit": "nM"}]}, {"compound": "CNC(=O)COc1cc2cc(Nc3nc(N4CCC(CN5C6CCC5CC(c5cccc7c(C8CCC(=O)NC8=O)nn(C)c57)C6)CC4)ncc3Cl)cnc2n(C)c1=O", "note": "[Compound 143, 2-((6-((5-chloro-2-(4-(((1R,3s,5S)-3-(3-(2,6-dioxopiperidin-3-yl)-1-methyl-1H-indazol-7-yl)-8-azabicyclo[3.2.1]octan-8-yl)methyl)piperidin-1-yl)pyrimidin-4-yl)amino)-1-methyl-2-oxo-1,2-dihydro-1,8-naphthyridin-3-yl)oxy)-N-methylacetamide]", "values": [{"measurement": "Ymin (5 hr)", "value": "++++ (Ymin < 30%)"}, {"measurement": "DC50", "value": "< 10", "unit": "nM"}]}, {"compound": "CNC(=O)COc1cc2cc(Nc3nc(N4CCN(c5cccc6c(C7CCC(=O)NC7=O)nn(C)c56)CC4)ncc3Cl)cnc2n(C(C)C)c1=O", "note": "(stereo not shown) [Compound 166, 2-[[6-[[5-chloro-2-[4-[3-(2,6-dioxo-3-piperidyl)-1-methyl-indazol-7-yl]piperazin-1-yl]pyrimidin-4-yl]amino]-1-isopropyl-2-oxo-1,8-naphthyridin-3-yl]oxy]-N-methyl-acetamide]", "values": [{"measurement": "Ymin (5 hr)", "value": "+++ (30% ≤ Ymin < 50%)"}, {"measurement": "DC50", "value": "< 10", "unit": "nM"}]}, {"compound": "CNC(=O)COc1cc2cc(Nc3nc(N4CC[C@H](CN5CCC(c6ccc7c(C8CCC(=O)NC8=O)nn(C)c7c6)CC5)[C@H](F)C4)ncc3Cl)cnc2n(C(C)C)c1=O", "note": "(relative stereo) [Compound 242a, 2-((6-((5-chloro-2-((3S,4R)-4-((4-(3-(2,6-dioxopiperidin-3-yl)-1-methyl-1H-indazol-6-yl)piperidin-1-yl)methyl)-3-fluoropiperidin-1-yl)pyrimidin-4-yl)amino)-1-isopropyl-2-oxo-1,2-dihydro-1,8-naphthyridin-3-yl)oxy)-N-methylacetamide]", "values": [{"measurement": "Ymin (5 hr)", "value": "++++ (Ymin < 30%)"}, {"measurement": "DC50", "value": "< 10", "unit": "nM"}]}, {"compound": "CNC(=O)COc1cc2cc(Nc3nc(N4CC[C@H](CN5CCN(c6ccc7c(C8CCC(=O)NC8=O)nn(C)c7c6)CC5)[C@H](C)C4)ncc3Cl)cnc2n(C(C)C)c1=O", "note": "(stereo partly drawn) [Compound 176a, 2-((6-((5-chloro-2-((3S,4S)-4-((4-(3-(2,6-dioxopiperidin-3-yl)-1-methyl-1H-indazol-6-yl)piperazin-1-yl)methyl)-3-methylpiperidin-1-yl)pyrimidin-4-yl)amino)-1-isopropyl-2-oxo-1,2-dihydro-1,8-naphthyridin-3-yl)oxy)-N-methylacetamide]", "values": [{"measurement": "Ymin (5 hr)", "value": "+++ (30% ≤ Ymin < 50%)"}, {"measurement": "DC50", "value": "< 10", "unit": "nM"}]}]}
